Measurements taken from paper PMC10978252 (Journal of medicinal chemistry, 2024).
“Also recorded” adds a separate entry of the source.

Tests used:
HIV-Nef [1] = biological target: T1, HIV-Nef (Human immunodeficiency virus type 1, UniProt P03406); assay type: cell-based, HIV-1; details: for Nef inhibitory potency, in words (relative to parent or comparator) / Nef IC50: 24 h; for Nef IC50: HIV ΔGPE transduced primary CD4+ T cells, upper limit of assay 1000 nM; for restoration of MHC-I levels on infected (GFP+) cells: ΔGPE transduced 48 h then treated 24 h, compared to uninfected (GFP-) cells
T1 sequence (P03406 2-206): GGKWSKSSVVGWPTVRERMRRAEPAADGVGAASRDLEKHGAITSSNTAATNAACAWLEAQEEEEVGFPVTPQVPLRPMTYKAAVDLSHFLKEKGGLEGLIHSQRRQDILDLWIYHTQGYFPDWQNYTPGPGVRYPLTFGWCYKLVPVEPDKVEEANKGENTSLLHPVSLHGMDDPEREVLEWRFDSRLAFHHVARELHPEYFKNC

V-ATPase [2] = biological target: V-ATPase (Homo sapiens, UniProt P27449); experiment: cell-based; assay type: cell-based; details: for V-ATPase inhibition (Lysotracker), in words / Lysotracker IC50: 24 h; for Lysotracker IC50: lysosomal neutralization / V-ATPase inhibition
Sequence of V-ATPase (Homo sapiens, UniProt P27449) (P27449 whole entry, looked up): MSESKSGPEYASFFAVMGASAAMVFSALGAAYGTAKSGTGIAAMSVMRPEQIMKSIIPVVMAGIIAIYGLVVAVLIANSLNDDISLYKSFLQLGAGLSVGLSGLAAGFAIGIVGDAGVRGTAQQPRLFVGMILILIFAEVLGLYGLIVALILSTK

primary CD4+ T cells [3] = experiment: 24 h viability
MHC-I HLA-A2 = assay type: cell-based, human; details: ΔGPEN; treated 24 h
primary CD4+ T cells [4] = experiment: 72 h viability
HIV-Nef [5] = biological target: T1, HIV-Nef; details: cited from earlier work; for MHC-I HLA-A2 restoration in HIV-infected primary T cells, side-by-side assays: B9 up to more than 10μM, CMA nanomolar
V-ATPase [6] = details: cited from earlier work
Nef = details: cited from earlier work
[7] = tested on: HIV-1 infected CD4+ T cells; details: single digit micromolar concentrations; cited from earlier work
[8] = tested on: Nef overexpressing HEK293T cells; details: single digit micromolar concentrations; cited from earlier work

Molecule: CO/C1=C\C(C)=C\[C@@H](C)[C@@H](O)[C@@H](C)C/C(C)=C/C=C/[C@H](OC)[C@@H]([C@@H](C)[C@@H](O)[C@H](C)[C@H]2C=C(O)[C@H](C)[C@@H](C(C)C)O2)OC1=O [compound 11]
- Nef inhibitory potency, in words (relative to parent or comparator) (HIV-Nef [1]): decreased potency

Molecule: C/C=C/[C@H]1O[C@@](O)([C@@H](C)[C@H](O)[C@H](C)[C@H]2OC(=O)/C(OC)=C/C(C)=C/[C@@H](C)[C@@H](O)[C@@H](C)[C@@H](O)[C@H](C)C/C(C)=C/C=C/[C@@H]2OC)C[C@@H](O[C@H]2C[C@@H](O)[C@H](OC(N)=O)[C@@H](C)O2)[C@@H]1C [compound 22, concanamycin B, reference compound]
- decrease in Nef inhibitory potency compared to CMA (1) (HIV-Nef [1]; vs CMA): ~10 fold
- V-ATPase inhibition (Lysotracker), in words (V-ATPase [2]): even greater decrease in V-ATPase inhibitory potency

Molecule: CO/C1=C\C(C)=C\[C@@H](C)C(=O)[C@@H](C)C/C(C)=C/C=C/[C@H](OC)[C@@H]([C@@H](C)[C@@H](O)[C@H](C)[C@@]2(O)CC(=O)[C@H](C)[C@@H](C(C)C)O2)OC1=O [compound 21]
- Nef IC50 (HIV-Nef [1]): above the activity threshold
- Lysotracker IC50 (V-ATPase [2]): above the activity threshold

Molecule: CO/C1=C\C(C)=C\[C@@H](C)[C@@H](O)[C@@H](C)C/C(C)=C/C=C/[C@H](OC)[C@@H]([C@@H](C)[C@@H](O)[C@H](C)[C@@]2(OC)C[C@@H](O)[C@H](C)[C@@H](C(C)C)O2)OC1=O [compound 8]
- Nef inhibitory potency, in words (relative to parent or comparator) (HIV-Nef [1]): decreased potency

Molecule: C/C=C/[C@H]1O[C@@H]([C@@H](C)[C@H](O)[C@H](C)[C@H]2OC(=O)/C(OC)=C/C(C)=C/[C@@H](C)[C@@H](O)[C@@H](CC)[C@@H](O)[C@H](C)C/C(C)=C/C=C/[C@@H]2OC)C[C@@H](O)[C@@H]1C [compound 38, 21-deoxy CMF]
- Nef inhibitory potency, in words (relative to parent or comparator) (HIV-Nef [1]): no change in potency

Molecule: CCCCC(=O)O[C@@H]1C[C@](O)([C@@H](C)[C@H](O)[C@H](C)[C@H]2OC(=O)/C(OC)=C/C(C)=C/[C@@H](C)[C@@H](O)[C@@H](C)C/C(C)=C/C=C/[C@@H]2OC)O[C@H](C(C)C)[C@H]1C [compound 14]
- Nef inhibitory potency, in words (relative to parent or comparator) (HIV-Nef [1]): decreased potency; also recorded: opposite effect

Molecule: C=C/C=C/C(=O)O[C@@H]1C[C@](O)([C@@H](C)[C@H](O)[C@H](C)[C@H]2OC(=O)/C(OC)=C/C(C)=C/[C@@H](C)[C@@H](O)[C@@H](C)C/C(C)=C/C=C/[C@@H]2OC)O[C@H](C(C)C)[C@H]1C [compound 16]
- Nef inhibitory potency, in words (relative to parent or comparator) (HIV-Nef [1]): decreased potency; also recorded: improved potency compared to 14 or 15

Molecule: CO/C1=C\C(C)=C\[C@@H](C)[C@@H](O)[C@@H](C)C/C(C)=C/C=C/[C@H](OC)[C@@H]([C@@H](C)[C@@H](O)[C@H](C)[C@H]2C[C@@H](O)[C@H](C)[C@@H](C(C)C)O2)OC1=O [compound 9, 19-deoxy Baf A1]
- Nef inhibitory potency, in words (relative to parent or comparator) (HIV-Nef [1]): decreased potency

Molecule: C[C@@H]1C[C@H](C)C[C@H](C)[C@@H](O)CC(=O)O[C@H]([C@@H]2CCC[C@H]2C(=O)O)C/C=C/C=C(/C#N)[C@H](O)[C@@H](C)C1 [S1, borrelidin]
- toxicity at 24 h, in words (primary CD4+ T cells [3]): toxic at 24-hrs

Molecule: CCCCCCCCC(=O)O[C@@H]1C[C@](O)([C@@H](C)[C@H](O)[C@H](C)[C@H]2OC(=O)/C(OC)=C/C(C)=C/[C@@H](C)[C@@H](O)[C@@H](C)C/C(C)=C/C=C/[C@@H]2OC)O[C@H](C(C)C)[C@H]1C [compound 15]
- Nef inhibitory potency, in words (relative to parent or comparator) (HIV-Nef [1]): decreased potency; also recorded: opposite effect

Molecule: C/C=C/[C@H]1O[C@@](O)([C@@H](C)[C@H](O)[C@H](C)[C@H]2OC(=O)/C(OC)=C/C(C)=C/[C@@H](C)[C@@H](O)[C@@H](CC)[C@@H](OC(C)=O)[C@H](C)C/C(C)=C/C=C/[C@@H]2OC)C[C@@H](O[C@H]2C[C@@H](OC(C)=O)[C@H](OC(N)=O)[C@@H](C)O2)[C@@H]1C [compound 33, 3’,9-diacetyl CMA]
- restoration of MHC-I levels on infected (GFP+) cells (HIV-Nef [1]): restored MHC-I levels
- MHC-I surface levels in cells lacking Nef (MHC-I HLA-A2): did not substantially alter MHC-I surface levels

Molecule: C/C=C/[C@H]1O[C@@](O)([C@@H](C)[C@H](O)[C@H](C)[C@H]2OC(=O)/C(OC)=C/C(C)=C/[C@@H](C)[C@@H](O)[C@@H](C)[C@@H](OC(C)=O)[C@H](C)C/C(C)=C/C=C/[C@@H]2OC)C[C@@H](O[C@H]2C[C@@H](OC(C)=O)[C@H](OC(N)=O)[C@@H](C)O2)[C@@H]1C [compound 31, 3’,9-diacetyl CMB]
- toxicity, in words (primary CD4+ T cells [4]): reducing toxicity

Molecule: C/C=C/C=C/[C@H]1O[C@@](O)([C@@H](C)[C@H](O)[C@H](C)[C@H]2OC(=O)/C(OC)=C/C(C)=C/[C@@H](C)[C@@H](O)[C@@H](C)C/C(C)=C/C=C/[C@@H]2OC)C[C@@H](O[C@H]2C[C@@H](O)[C@H](O)[C@@H](C)O2)[C@@H]1C [compound 19, PC-766B, reference compound]
- toxicity, in words (primary CD4+ T cells [4]): significantly more toxic

Molecule: C=CC(C)C(OC(=O)[C@@H](C)[C@H](O)[C@H](C)[C@H]1OC(=O)/C(OC)=C/C(C)=C/[C@@H](C)[C@@H](O)[C@@H](C)C/C(C)=C/C=C/[C@@H]1OC)C(C)C (stereo partly drawn) [compound 12]
- decrease in Nef potency compared to 2 (HIV-Nef [1]; vs Baf A1): 26 fold
- V-ATPase inhibition (Lysotracker), in words (V-ATPase [2]): Dramatic reductions
- toxicity, in words (primary CD4+ T cells [4]): Dramatic reductions

Molecule: CO/C1=C\C(C)=C\[C@@H](C)C(=O)[C@@H](C)C/C(C)=C/C=C/[C@H](OC)[C@@H]([C@@H](C)[C@@H](O)[C@H](C)[C@@]2(O)C[C@@H](O)[C@H](C)[C@@H](C(C)C)O2)OC1=O [compound 20]
- Nef inhibitory potency, in words (relative to parent or comparator) (HIV-Nef [1]): reduced activity at all concentrations tested
- Nef IC50 (HIV-Nef [1]): above the activity threshold
- Lysotracker IC50 (V-ATPase [2]): above the activity threshold

Molecule: CO/C1=C\C(C)=C\[C@@H](C)[C@@H](O)[C@@H](C)C/C(C)=C/C=C/[C@H](OC)[C@@H]([C@@H](C)[C@@H](O)[C@H](C)[C@H]2C[C@@H](OC)[C@H](C)[C@@H](C(C)C)O2)OC1=O [compound 10]
- Nef inhibitory potency, in words (relative to parent or comparator) (HIV-Nef [1]): decreased potency

Molecule: bafilomycin D [Baf D]
- Nef inhibition, in words (HIV-Nef [5]): poor inhibitor
- V-ATPase inhibition, in words (V-ATPase [6]): poor inhibitor

Molecule: C/C=C/[C@H]1O[C@@](O)([C@@H](C)[C@H](O)[C@H](C)[C@H]2OC(=O)/C(OC)=C/C(C)=C/[C@@H](C)[C@@H](O)[C@@H](CC)[C@@H](O)[C@H](C)C/C(C)=C/C=C/[C@@H]2OC)C[C@@H](O[C@H]2C[C@@H](O)[C@H](OC(N)=O)[C@@H](C)O2)[C@@H]1C [compound 1, concanamycin A, reference compound]
- restoration of MHC-I levels on infected (GFP+) cells (HIV-Nef [1]): restored MHC-I levels
- IC50 (V-ATPase [2]): 1.7 nM
- MHC-I surface levels in cells lacking Nef (MHC-I HLA-A2): did not substantially alter MHC-I surface levels
- MHC-I HLA-A2 restoration in HIV-infected primary T cells, side-by-side assays (HIV-Nef [5]): near-fully restore
- binding between Nef and CMA (Nef): no binding

Molecule: C/C=C/[C@H]1O[C@@H]([C@@H](C)[C@H](O)[C@H](C)[C@H]2OC(=O)/C(OC)=C/C(C)=C/[C@@H](C)[C@@H](O)[C@@H](CC)[C@@H](O)[C@H](C)C/C(C)=C/C=C/[C@@H]2O)C[C@@H](O)[C@@H]1C [compound 39, 21-deoxy-16-hydroxy CMF]
- reduction of Nef inhibitory activity compared to CMF (24) (HIV-Nef [1]; vs CMF): over 200 fold

Molecule: CO/C1=C\C(C)=C\[C@@H](C)[C@@H](O)[C@@H](C)C/C(C)=C/C=C/[C@H](OC)[C@@H]([C@@H](C)[C@@H](O)[C@H](C)[C@@]2(O)C[C@@H](O[C@@H]3O[C@@H](C)[C@H](O)[C@@H](O)[C@H]3OC)[C@H](C)[C@@H](C(C)C)O2)OC1=O [compound 18, leucanicidin, reference compound]
- toxicity, in words (primary CD4+ T cells [4]): significantly more toxic

Molecule: CC[C@H](C)C(=O)O[C@H]1C[C@@H](C)C=C2C=C[C@H](C)[C@H](CC[C@@H]3C[C@@H](O)CC(=O)O3)[C@H]21 [Lovastatin]
- MHC-I HLA-A2 restoration in HIV-infected primary T cells, side-by-side assays (HIV-Nef [5]): partially restored
- concentration for partial MHC-I restoration, relative to CMA (HIV-Nef [5]): 2,000 fold
- surface expression of MHC-1 and CD4 [7]: increases surface expression
- surface expression of SERINC5 [8]: increases surface expression
